Laboratory results as given in paper PMC6128612, “Prodrugs for colon-restricted delivery: Design, synthesis, and in vivo evaluation of colony stimulating factor 1 receptor (CSF1R) inhibitors” (PLoS ONE, 2018).

What was measured:
murine colitis = tested on: murine colitis; design: method as in earlier work; details: cited from earlier work
rheumatoid arthritis = tested on: rheumatoid arthritis; design: method as in PMID 26233509; details: DMARD-refractory active RA patients; cited from earlier work
[1] = tested on: IBA1+ macrophages in the colon; assay: Mouse DSS model of colitis: colon macrophages by image analysis; format: in vivo; details: 100 mg/kg QD day 7–14
Method: (§1) On day 0, super prophylactic dosing of compound 2 began on C57BL/6 female mice. […] At this time compound 3 dosing initiated. […] Statistical analyses of in-vivo pharmacodynamic and efficacy data were performed as follows. D'Agostino & Pearson normality test was first used to test data for Gaussian distribution. If all groups passed normality test, a One-way ANOVA was used with Dunnett’s multiple comparisons test to compare treatment groups to Vehicle group. If not all groups passed normality test, a Kruskal-Wallis nonparametric ANOVA was used, with Dunn’s multiple comparison test to compare treatment groups to Vehicle group. Levels of significance compared to Vehicle are annotated as follows: * = p<0.05, ** = p<0.01, *** = p<0.001, **** = p < 0.0001. Optimal number of mice per group was determined using power analysis; N = 10 mice per group at 80% power predicts statistically significant detection of ≥ ~40% reduction in colon IBA1+ and ≥ ~75% reduction in colon erosion length comparing treatment groups to Vehicle group. Naïve groups were omitted from statistical analyses.

[2] = tested on: CD11b+ CD11c+ MHCII- nonclassical monocytes; assay: Mouse DSS model of colitis: circulating non-classical monocytes by FACS; format: in vivo; details: 100 mg/kg QD day 7–14
Method: as §1

CC1(C)CC=C(c2nc(C3CC(C)(C)OC(C)(C)C3)ccc2NC(=O)c2nc(C#N)c[nH]2)CC1 [Compound 3]
Clinical and histopathological disease readouts (murine colitis): reduction in clinical and histopathological disease readouts
Efficacy in Phase II trial (rheumatoid arthritis): lack of efficacy
Depletion of macrophages (IBA1+) in the colon [1]: 76%
Depletion of CD11b+ CD11c+ MHCII- nonclassical monocytes [2]: 94%
